In paper PMC4773869, “Influence of plasma-activated compounds on melanogenesis and tyrosinase activity” (Scientific Reports, 2016):
Like-named read-outs stand apart in the source and are kept apart here.

Legend:
mushroom tyrosinase [1] = molecular target: T1, mushroom tyrosinase (Agaricus bisporus, UniProt C7FF04); assay: Circular dichroism analysis of the secondary structure of mushroom tyrosinase; details: tyrosinase + as-synthesized compound (0 min plasma), 0.1 mM; for Turn % of tyrosinase: enzyme alone 7; for α-helix % of tyrosinase: enzyme alone 16; for β-sheet % of tyrosinase: enzyme alone 33; for Random coil % of tyrosinase: enzyme alone 44
Description: The structural changes in tyrosinase after incubation with ED and PAED were plotted in Fig. 5. […] We observed that the control tyrosinase enzyme has 16% α-helix, 33% β-sheets, 7% turn, and 44% random coil. After the interaction with 4a, the amount of α-helix changed to 15% and β-sheets changed to 35%. On the other hand, after the plasma treatment of 4a the amount of α-helix changed to 17% and β-sheets changed to 31%. While, after interacting with 4b, the amount of α-helix is 16.0%, β-sheets 29%, turn 10%, and random coil is 45.0%. However, plasma-activated 4b interacts differently with tyrosinase enzyme, showing 16% α-helix, 33% β-sheets, 6% turn, and 45% random coil. When 6a ED interacted with tyrosinase enzyme, we observed 20% α-helix, 25% β-sheets, 11.0% turn, and 44% random coil. However, 6a PAED interacts with tyrosinase enzyme, the α-helix changed to 19%, β-sheets 28%, turn 9%, and random coil 44%. […] To obtain further detail on the interaction of the ED with tyrosinase enzyme, we studied the molecular docking. For the CD spectroscopic studies[65][66][67] a J-815 spectrophotometer (Jasco, Japan) was used, equipped with a Peltier system that controlled the temperature. (1S)-(+)-10-camphorsulfonic acid (Aldrich, Milwaukee, WI) with a molar extinction coefficient of 34.5 M/cm at 285 nm and a 2.36 M/cm molar ellipticity (θ) at 295 nm was used for the CD calibrations. The samples were pre-equilibrated at the desired temperature for 15 min, and the scan speed was fixed for adaptative sampling (error F 0.01) with a response time of 1 sec and a 1 nm bandwidth. The secondary structure of the mushroom tyrosinase was monitored by using a 1.0 cm path length cuvette. The mushroom tyrosinase (0.2 mg/ml) was prepared in phosphate buffer (20 mM) at pH 6.8 for CD analysis. We used the 0.1 mM concentration of all derivatives in 1 ml buffer solution, with or without 10 min plasma treatment. All spectra were collected in triplicate from 200 to 250 nm and the background was corrected against the buffer (blank). The percentages of secondary structures of proteins were calculated using inbuilt Jasco software.
Target sequence in this assay (C7FF04 2-392): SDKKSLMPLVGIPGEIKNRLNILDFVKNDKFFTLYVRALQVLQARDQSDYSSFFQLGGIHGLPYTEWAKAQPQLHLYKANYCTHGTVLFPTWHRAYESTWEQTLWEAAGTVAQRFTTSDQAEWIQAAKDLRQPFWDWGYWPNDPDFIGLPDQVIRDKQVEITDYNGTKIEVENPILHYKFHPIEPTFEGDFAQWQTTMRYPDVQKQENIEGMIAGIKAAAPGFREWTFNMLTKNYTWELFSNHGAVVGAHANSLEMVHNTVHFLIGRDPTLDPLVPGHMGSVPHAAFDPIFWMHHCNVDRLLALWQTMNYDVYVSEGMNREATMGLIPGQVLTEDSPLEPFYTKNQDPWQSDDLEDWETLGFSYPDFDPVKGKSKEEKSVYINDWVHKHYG

[2] = system: TRP1 expression in B16F10 cells; assay: Western blot, TRP1 expression; assay type: cell-based, murine; details: 24 hr; for expression of TRP1 versus control: ED (as-synthesized); for expression of TRP1 versus ED: PAED (plasma-treated)
Description: (§1) Melanoma cells were incubated with as-synthesized and plasma-treated 4b and 6a test compounds for 24 hr. Following incubation, treated and untreated cells were lysed in RIPA buffer (Cell Signaling Technology, USA), whole cell protein was extracted and subjected to electrophoresis in 12% SDS-PAGE, and blotted onto nitrocellulose membranes. The membrane was probed with the antibodies raised against MITF, tyrosinase and TRP1 (Abcam, USA). The bands were detected using Super Signal West Pico Chemiluminescent Substrate (Pierce, Rockford, IL, USA) and images were taken using a Vilver imaging system (Vilver, Upland, CA, USA).

[3] = system: tyrosinase expression in B16F10 cells; assay: Western blot, tyrosinase expression; assay type: cell-based, murine; details: 24 hr
Description: as §1

mushroom tyrosinase [4] = molecular target: T1, mushroom tyrosinase; assay: Mushroom tyrosinase inhibition assay (L-DOPA, dopachrome at 492 nm); assay type: biochemical; set-up: purchased Sigma Chemical Co. USA; details: mean ± SD, read-out: Tyrosinase inhibitory activity IC50 (converted)
Description: To determine the action of ED and PAED, we checked the mushroom tyrosinase inhibitory activity in a cell-free environment. […] Moreover, after plasma treatment for different time intervals, we observed that inhibition activity of 4a, 4b, 4d and 6a was improved more as compared to without treatment. […] However, we observed the highest relative improvement in IC50 value of compound 4b among all ED compounds at 10 min plasma treatment. […] Therefore, we used the 4b and 6a compounds for further investigations, based on the decrease in IC50 value to a global minimum of the experiment after plasma treatment.
The mushroom tyrosinase was used for in vitro bioassays as described previously with some modifications. Briefly, 140 μl of phosphate buffer (20 mM, pH 6.8), 20 μl of mushroom tyrosinase (30 U/ml), and 20 μl of the inhibitor solution were placed in the wells of a 96-well plate. After pre-incubation for 10 min at room temperature, 20 μl of L-DOPA (3,4-dihydroxyphenylalanine) (0.85 mM) was added and the plate was further incubated at 25 °C for 20 min. Subsequently the absorbance of dopachrome was measured at 492 nm using a micro plate reader (OPTI Max, Tunable). Kojic acid was used as a reference inhibitor. The extent of inhibition by the test compounds was expressed as the […] necessary to achieve 50% inhibition (IC50). Each concentration was analyzed in three independent experiments run in triplicate. The IC50 values were determined by the data analysis and graphing software, Origin.
Target sequence in this assay (C7FF04 1-392): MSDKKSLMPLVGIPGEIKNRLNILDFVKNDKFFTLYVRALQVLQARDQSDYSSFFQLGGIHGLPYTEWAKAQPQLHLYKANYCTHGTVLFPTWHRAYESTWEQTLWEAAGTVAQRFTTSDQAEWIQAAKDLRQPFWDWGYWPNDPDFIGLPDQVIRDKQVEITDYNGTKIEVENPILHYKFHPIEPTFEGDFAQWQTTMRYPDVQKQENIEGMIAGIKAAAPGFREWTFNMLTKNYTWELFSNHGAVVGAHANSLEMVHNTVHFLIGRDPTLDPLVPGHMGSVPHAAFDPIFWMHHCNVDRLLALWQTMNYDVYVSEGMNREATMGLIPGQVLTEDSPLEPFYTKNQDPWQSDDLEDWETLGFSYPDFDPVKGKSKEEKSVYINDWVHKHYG

[5] = Con: as-synthesized, before plasma treatment, cell-free
[6] = compound after 3 min N2 APPJ plasma treatment
[7] = compound after 5 min N2 APPJ plasma treatment
[8] = compound after 10 min N2 APPJ plasma treatment

Turn % of tyrosinase (mushroom tyrosinase [1]) [%] | Turn % of tyrosinase (mushroom tyrosinase [1]; listed as 6a-0 min) [%] | α-helix % of tyrosinase (mushroom tyrosinase [1]) [%] | β-sheet % of tyrosinase (mushroom tyrosinase [1]) [%] | Random coil % of tyrosinase (mushroom tyrosinase [1]) [%] | IC50 (mushroom tyrosinase [4]; [5]) [µM] | IC50 (mushroom tyrosinase [4]; [6]) [µM] | IC50 (mushroom tyrosinase [4]; [7]) [µM] | IC50 (mushroom tyrosinase [4]; [8]) [µM] | α-helix % of tyrosinase (mushroom tyrosinase [1]; listed as 4b-0 min) [%] | Random coil % of tyrosinase (mushroom tyrosinase [1]; listed as 4b-0 min) [%] | SMILES | expression of TRP1 versus control [2] | expression of TRP1 versus ED [2] | cellular tyrosinase expression versus control ([3]; ED (as-synthesized)) | cellular tyrosinase expression versus control ([3]; PAED (plasma-treated))
11.0 | 11 | 20 | 25 | 44 | 13.6 | 13.6 | 13.6 | 8.14 |  |  | C=CCc1ccc(OC(=O)COC(=O)/C=C/c2ccc(O)cc2)c(OC)c1 [6a, 2-[2-methoxy-4-(prop-2-en-1-yl)phenoxy]-2-oxoethyl(2E)-3-(4-hydroxyphenyl)prop-2-enoate] | higher expression | more expression | no change | no change
10 |  | 16.0 | 29 | 45.0 | 84.7 | 70.1 | 67.2 | 40.9 | 16 | 45 | C=CCc1ccc(OC(=O)COC(=O)c2ccc(O)cc2)c(OC)c1 [4b, 2-[2-methoxy-4-(prop-2-en-1-yl)phenoxy]-2-oxoethyl 4-hydroxybenzoate] | higher expression | more expression | no change | no change
